ChEMBL document CHEMBL3351582, “A simple, general approach of allosteric coagulation enzyme inhibition through monosulfated hydrophobic scaffolds” (Bioorg Med Chem Lett, 2014)

Legend:
Coagulation factor X = Coagulation factor X (Homo sapiens, UniProt P00742); assay: Inhibition of human factor 10a by spectrophotometric assay
[1] = Anticoagulant activity in human […] assessed as concentration required to double prothrombin time; type: functional
[2] = Anticoagulant activity in human […] assessed as concentration required to double activated partial thromboplastin time; type: functional
Coagulation factor XI = Coagulation factor XI (Homo sapiens, UniProt P03951); assay: Inhibition of human factor 11a by spectrophotometric assay
Sequence of Coagulation factor XI (P03951 19-387 limits assumed): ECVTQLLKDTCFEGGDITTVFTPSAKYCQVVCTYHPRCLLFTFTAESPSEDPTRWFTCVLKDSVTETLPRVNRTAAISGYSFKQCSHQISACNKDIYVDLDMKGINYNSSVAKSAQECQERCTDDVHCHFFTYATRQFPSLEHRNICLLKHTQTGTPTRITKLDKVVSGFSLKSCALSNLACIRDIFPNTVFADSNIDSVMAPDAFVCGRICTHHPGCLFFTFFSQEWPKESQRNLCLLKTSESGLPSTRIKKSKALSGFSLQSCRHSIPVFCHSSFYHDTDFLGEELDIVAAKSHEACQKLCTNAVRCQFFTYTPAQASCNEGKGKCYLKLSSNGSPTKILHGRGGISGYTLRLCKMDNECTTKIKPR
Sequence of Coagulation factor XI (P03951 388-625 limits assumed): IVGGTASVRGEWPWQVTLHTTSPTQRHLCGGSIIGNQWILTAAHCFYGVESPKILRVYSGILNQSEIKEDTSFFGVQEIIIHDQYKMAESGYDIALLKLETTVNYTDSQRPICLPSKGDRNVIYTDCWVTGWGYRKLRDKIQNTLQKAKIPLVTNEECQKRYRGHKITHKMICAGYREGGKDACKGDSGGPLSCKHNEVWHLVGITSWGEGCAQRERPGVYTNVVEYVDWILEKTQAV

Prothrombin = Prothrombin (Homo sapiens, UniProt P00734); assay: Inhibition of human thrombin using spectrozyme TH as substrate by spectrophotometric assay

Sequence of Coagulation factor X (P00742 41-179 limits assumed): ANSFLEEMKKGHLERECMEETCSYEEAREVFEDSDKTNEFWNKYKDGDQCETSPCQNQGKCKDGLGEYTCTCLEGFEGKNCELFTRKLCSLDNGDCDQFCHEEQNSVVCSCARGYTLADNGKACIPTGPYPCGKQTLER
Sequence of Coagulation factor X (P00742 235-488 limits assumed): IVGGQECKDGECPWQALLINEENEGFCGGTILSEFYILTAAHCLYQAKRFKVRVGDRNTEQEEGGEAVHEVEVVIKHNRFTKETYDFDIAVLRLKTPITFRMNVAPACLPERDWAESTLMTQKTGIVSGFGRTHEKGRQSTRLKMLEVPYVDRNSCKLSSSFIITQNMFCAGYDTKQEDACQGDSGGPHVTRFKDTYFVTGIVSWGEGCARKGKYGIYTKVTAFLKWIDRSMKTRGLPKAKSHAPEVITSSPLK

IC50 (Coagulation factor X; read-out: IC50) [µM] | IC50 (Coagulation factor XI; read-out: IC50) [µM] | IC50 (Prothrombin) [µM] | IC50 (Coagulation factor X) | IC50 (Coagulation factor XI) | Compound | 2PT [1] [µM] | 2aPTT [2] [µM]
344 | 86.9 | 304 |  |  | CCOC(=O)c1c(COc2cc3c(C(=O)OCC)c(COc4cc5c(C(=O)OCC)c(C)oc5cc4OC)oc3cc2OC)[nH]c2ccc(OS(=O)(=O)[O-])cc12.[Na+] | 845 | 755
229 | 220 | 425 |  |  | CCOC(=O)c1c(C)[nH]c2ccc(OCc3c(C(=O)OCC)c4cc(OS(=O)(=O)[O-])ccc4n3C(=O)OC(C)(C)C)cc12.[Na+] | 1475 | 424
 |  | 327 | Not Active | Not Active | Cc1nc2ccc(OCc3nc4ccc(OS(=O)(=O)[O-])cc4s3)cc2s1.[Na+] |  | 
195 | 118 | 327 |  |  | CCOC(=O)c1c(COc2cc3c(C(=O)OCC)c(Cc4ccccc4)oc3cc2OC)[nH]c2ccc(OS(=O)(=O)[O-])cc12.[Na+] | 2361 | 1021
352 | 124 | 146 |  |  | COc1cc2occ(C(=O)OC(C)(C)C)c2cc1OCc1nc2ccc(OS(=O)(=O)O)cc2s1 |  | 
